Experimental data taken from patent publication US20050101595A1, “N-containing cycloalkyl-substituted amino-thiazole derivatives and pharmaceutical compositions for inhibiting cell proliferation and methods for their use” (PFIZER INC., priority 2003, published 2005).
pIC50, pKi: −log10 of the molar value. Counter-ions that a name gives are not always drawn. Like-named read-outs stand apart in the source and are kept apart here.

Experiments:
HCT-116 cell line = experiment: Inhibition of cell growth, tetrazolium salt (MTT) assay; format: cell-based; conditions: for pIC50: Homo sapiens, HCT-116, 120 h, MTT, three to five days, read-out: HCT-116 IC50; for HCT-116 % Inhibition at 0.25 μM: 0.25 μM compound
Procedure, shortened: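 HCT-116 cells in McCoy's 5A medium received compound 4 h after plating (0.5% v/v DMSO) and were incubated three to five days at 37° C, 5% CO2. MTT (0.2 mg/mL final) then added for 4 h; DMSO-solubilized formazan read at 540 nm against 0.5% DMSO-treated controls.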

[1] = molecular target: human CDK4 and genetically truncated (1-264) cyclin D3 (Homo sapiens, UniProt P11802); experiment: Inhibition of CDK4/Cyclin D Retinoblastoma Kinase Activity; format: biochemical; conditions: for pKi: apparent Ki, CDK4/truncated cyclin D3, Rb fragment substrate, 25 μM ATP
Sequence of human CDK4 and genetically truncated (1-264) cyclin D3 (P11802 whole entry, the tested form may be a part): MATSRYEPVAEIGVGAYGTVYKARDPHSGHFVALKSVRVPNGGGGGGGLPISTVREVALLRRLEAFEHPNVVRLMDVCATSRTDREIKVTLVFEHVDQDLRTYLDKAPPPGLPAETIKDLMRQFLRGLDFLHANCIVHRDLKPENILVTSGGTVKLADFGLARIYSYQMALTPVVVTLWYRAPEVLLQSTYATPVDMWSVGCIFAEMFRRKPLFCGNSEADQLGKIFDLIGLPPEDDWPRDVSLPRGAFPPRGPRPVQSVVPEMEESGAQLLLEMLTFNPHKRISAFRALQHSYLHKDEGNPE
Sequence of human CDK4 and genetically truncated (1-264) cyclin D3 (P30281 1-264 partner): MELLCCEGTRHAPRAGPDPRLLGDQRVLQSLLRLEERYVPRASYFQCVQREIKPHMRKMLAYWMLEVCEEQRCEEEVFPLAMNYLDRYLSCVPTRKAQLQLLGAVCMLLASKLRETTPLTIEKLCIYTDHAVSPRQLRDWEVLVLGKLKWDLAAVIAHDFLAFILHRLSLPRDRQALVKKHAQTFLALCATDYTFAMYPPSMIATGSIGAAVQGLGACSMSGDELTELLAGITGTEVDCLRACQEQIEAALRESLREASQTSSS
Procedure, shortened: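 Human CDK4/truncated cyclin D3 (1-264) complex from baculovirus-infected insect cells, 5 nM, phosphorylating Rb fragment (residues 386-928, His-tagged) with 25 μM [32/33P]ATP in HEPES pH 7.4, MgCl2, 2% DMSO at 30° C. for 20 min (60 min for tight binders). Filter-captured radioactivity by phosphorimager; apparent Ki from competitive or tight-binding fits.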

CDK2/Cyclin A = CDK2/Cyclin A (Homo sapiens, UniProt P24941); experiment: Inhibition of CDK2/Cyclin A Retinoblastoma Kinase Activity; format: biochemical; conditions: for pKi: apparent Ki, CDK2/proteolyzed cyclin A, Rb fragment substrate, 25 μM ATP
Procedure, shortened: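 Baculovirus-expressed CDK2 complexed with proteolyzed cyclin A (10 or 19 nM), Rb fragment substrate, 25 μM [32P/33P]ATP, HEPES pH 7.4, 30 °C for 60 or 75 min under initial-rate conditions. Filter capture and phosphorimager readout; apparent Ki fitted to competitive or tight-binding competitive inhibition.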

[2] = 0.1 μM compound, HCT-116, Table 4
[3] = 0.1 μM compound, HCT-116, Table 3

## Nc1nc(NC2CCN(S(=O)(=O)CCNC3CCS(=O)(=O)C3)CC2)sc1C(=O)c1c(F)cccc1F (stereo not drawn) [Example K31, (4-Amino-2-{1-[2-(1,1-dioxo-tetrahydro-1-lamda-6-thiophen-3-ylamino)-ethanesulfonyl]-piperidin-4-ylamino}-thiazol-5-yl)-(2,6-difluoro-phenyl)-methanone Trifluoroacetic Acid Salt.]
HCT-116 cell line; first HCT-116 column (c4)
  pIC50: < 5.30
HCT-116 cell line; second HCT-116 column (c5)
  pIC50: < 5.30
[1]
  pKi: 8.37
CDK2/Cyclin A
  pKi: 8.26

## Nc1nc(NC2CCN(C(=O)c3ccc(Cl)cc3)CC2)sc1C(=O)c1c(F)cccc1F [Example Q27]
HCT-116 cell line; [2]
  HCT-116 % Inhibition at 0.1 μM: 4%
HCT-116 cell line; HCT-116, Table 4
  HCT-116 % Inhibition at 0.25 μM: 40%
[1]; 0.03 μM compound, Table 4
  CDK4 % Inhibition at 0.03 μM: 76%
CDK2/Cyclin A; 0.03 μM compound, Table 4
  CDK2 % Inhibition at 0.03 μM: 32%

## CC(=O)OCC(=O)N1CCC(Nc2nc(N)c(C(=O)c3c(F)cccc3F)s2)CC1 [Example Q76]
HCT-116 cell line; [2]
  HCT-116 % Inhibition at 0.1 μM: 4%
HCT-116 cell line; HCT-116, Table 4
  HCT-116 % Inhibition at 0.25 μM: 36%
[1]; 0.03 μM compound, Table 4
  CDK4 % Inhibition at 0.03 μM: 31%
CDK2/Cyclin A; 0.03 μM compound, Table 4
  CDK2 % Inhibition at 0.03 μM: 27%

## CN(C)c1ccc(C(=O)N2CCC(Nc3nc(N)c(C(=O)c4c(F)cccc4F)s3)CC2)cc1 [Example R79]
HCT-116 cell line; HCT-116 cells, at 0.1 μM
  HCT-116 % Inhibition at 0.1 μM: 0%
HCT-116 cell line; HCT-116 cells
  HCT-116 5 Inhibition at 0.25 μM: 47
[1]; at 0.03 μM
  CDK4 % Inhibition at 0.03 μM: 16%
CDK2/Cyclin A; at 0.03 μM
  CDK2 % Inhibition at 0.03 μM: 14%

## Nc1nc(NC2CCN(C(=O)c3c(Cl)cc(Cl)cc3Cl)CC2)sc1C(=O)c1c(F)cccc1F [Example R56]
HCT-116 cell line; HCT-116 cells, at 0.1 μM
  HCT-116 % Inhibition at 0.1 μM: 0%
HCT-116 cell line; HCT-116 cells
  HCT-116 5 Inhibition at 0.25 μM: 43
[1]; at 0.03 μM
  CDK4 % Inhibition at 0.03 μM: 8%
CDK2/Cyclin A; at 0.03 μM
  CDK2 % Inhibition at 0.03 μM: 14%

## CC(=O)Oc1ccccc1C(=O)N1CCC(Nc2nc(N)c(C(=O)c3c(F)cccc3F)s2)CC1 [Example Q14]
HCT-116 cell line; [2]
  HCT-116 % Inhibition at 0.1 μM: 15%
HCT-116 cell line; HCT-116, Table 4
  HCT-116 % Inhibition at 0.25 μM: 45%
[1]; 0.03 μM compound, Table 4
  CDK4 % Inhibition at 0.03 μM: 80%
CDK2/Cyclin A; 0.03 μM compound, Table 4
  CDK2 % Inhibition at 0.03 μM: 59%

## Nc1nc(NC2CCN(C(=O)c3ccc4c(c3)C(=O)c3ccccc3C4=O)CC2)sc1C(=O)c1c(F)cccc1F [Example R34]
HCT-116 cell line; HCT-116 cells, at 0.1 μM
  HCT-116 % Inhibition at 0.1 μM: 0%
HCT-116 cell line; HCT-116 cells
  HCT-116 5 Inhibition at 0.25 μM: 55
[1]; at 0.03 μM
  CDK4 % Inhibition at 0.03 μM: 60%
CDK2/Cyclin A; at 0.03 μM
  CDK2 % Inhibition at 0.03 μM: 35%

## Nc1nc(NC2CCN(S(=O)(=O)c3ccc(F)cc3F)CC2)sc1C(=O)c1c(F)cccc1F [Example P34]
HCT-116 cell line; [3]
  HCT-116 % Inhibition at 0.1 μM: 8%
HCT-116 cell line; HCT-116, Table 3
  HCT-116 % Inhibition at 0.25 μM: 23%
[1]; 0.03 μM compound, Table 3
  CDK4 % Inhibition at 0.03 μM: 58%
CDK2/Cyclin A; 0.03 μM compound, Table 3
  CDK2 % Inhibition at 0.03 μM: 60%

## CN1CCCC(Oc2ccc(S(=O)(=O)N3CCC(Nc4nc(N)c(C(=O)c5c(F)cccc5F)s4)CC3)cn2)C1 (stereo not drawn) [Example H16, 1-(4-Amino-2-{1-[6-(1-methyl-piperidin-3RS-yloxy)-pyridin-3-sulfonyl]-piperidin-4-ylamino}-thiazol-5-yl)-1-(2,6-difluoro-phenyl)-methanone Hydrochloride]
HCT-116 cell line; first HCT-116 column (c4)
  pIC50: 7.24
HCT-116 cell line; second HCT-116 column (c5)
  pIC50: 6.30
[1]
  pKi: 9.55
CDK2/Cyclin A
  pKi: 9.32

## Cc1ccc(NC(=O)N2CCC(Nc3nc(N)c(C(=O)c4c(F)cccc4F)s3)CC2)cc1 [Example O24]
HCT-116 cell line; HCT-116, Table 2
  HCT-116 % Inhibition at 0.25 μM: 6%
[1]; 0.03 μM compound, Table 2
  CDK4 % Inhibition at 0.03 μM: 21%
CDK2/Cyclin A; 0.03 μM compound, Table 2
  CDK2 % Inhibition At 0.03 μM: 34%

## Nc1nc(NC2CCN(S(=O)(=O)c3ccc(Br)s3)CC2)sc1C(=O)c1c(F)cccc1F [Example F50, 1-{4-Amino-2-[1-(5-bromo-thiophene-2-sulfonyl)-piperidin4-ylamino]-thiazol-5-yl}1-(2,6-difluoro-phenyl)-methanone]
HCT-116 cell line; first HCT-116 column (c4)
  pIC50: 6.55
HCT-116 cell line; second HCT-116 column (c5)
  pIC50: 5.59
[1]
  pKi: 8.49
CDK2/Cyclin A
  pKi: 8.96

## C[C@@H](O)CN(C)c1ccc(S(=O)(=O)N2CCC(Nc3nc(N)c(C(=O)c4c(F)cccc4F)s3)CC2)cn1 [Example G17, 1-[4-Amino-2-(1-{6-[((R)-2-hydroxy-propyl)-methyl-amino]-pyridine-3-sulfonyl}-piperidine-4-ylamino)-thiazol-5-yl]-1-(2,6-difluoro-phenyl)-methanone Trifluoroacetic Acid Salt]
HCT-116 cell line; first HCT-116 column (c4)
  pIC50: 6.44
HCT-116 cell line; second HCT-116 column (c5)
  pIC50: 6.05
[1]
  pKi: 8.85
CDK2/Cyclin A
  pKi: 9.26

## COC(=O)c1csc(S(=O)(=O)N2CCC(Nc3nc(N)c(C(=O)c4c(F)cccc4F)s3)CC2)c1OC [Example P70]
HCT-116 cell line; [3]
  HCT-116 % Inhibition at 0.1 μM: 14%
HCT-116 cell line; HCT-116, Table 3
  HCT-116 % Inhibition at 0.25 μM: 27%
[1]; 0.03 μM compound, Table 3
  CDK4 % Inhibition at 0.03 μM: 60%
CDK2/Cyclin A; 0.03 μM compound, Table 3
  CDK2 % Inhibition at 0.03 μM: 37%
